Measured values: PubChem BioAssay (NCI)
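Each compound was tested at five concentrations against cells in 96-well plates for 48 hours. The concentration for full growth arrest is given as TGI.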

Assays:
Assay in all cases: inhibition of tumour cell growth, NCI panel, 48 h
[1] = test system: M14 melanoma
[2] = test system: ACHN renal
[3] = test system: COLO 205 colon
[4] = test system: SW-620 colon
[5] = test system: OVCAR-4 ovarian
[6] = test system: HT29 colon
[7] = test system: HCT-15 colon
[8] = test system: LOX IMVI melanoma
[9] = test system: UACC-257 melanoma
[10] = test system: RXF 393 renal
[11] = test system: 786-0 renal
[12] = test system: K-562 leukemia
[13] = test system: MALME-3M melanoma
[14] = test system: OVCAR-5 ovarian
[15] = test system: TK-10 renal
[16] = test system: KM12 colon
[17] = test system: OVCAR-8 ovarian
[18] = test system: SNB-19 CNS
[19] = test system: HCC-2998 colon
[20] = test system: SK-OV-3 ovarian
[21] = test system: T-47D breast
[22] = test system: HL-60(TB) leukemia
[23] = test system: MCF7 breast
[24] = test system: CAKI-1 renal
[25] = test system: UACC-62 melanoma
[26] = test system: HOP-62 NSCLC
[27] = test system: NCI-H23 lung
[28] = test system: RPMI-8226 leukemia
[29] = test system: DU-145 prostate
[30] = test system: SK-MEL-28 melanoma
[31] = test system: MDA-N
[32] = test system: SK-MEL-2 melanoma
[33] = test system: HOP-92 NSCLC
[34] = test system: SK-MEL-5 melanoma
[35] = test system: SN12C renal
[36] = test system: NCI-H460 lung
[37] = test system: SF-268 CNS
[38] = test system: BT-549 breast
[39] = test system: SNB-75 CNS
[40] = test system: U251 CNS
[41] = test system: MOLT-4 leukemia
[42] = test system: NCI-H226 lung
[43] = test system: HCT-116 colon
[44] = test system: A549 NSCLC
[45] = test system: NCI/ADR-RES ovarian
[46] = test system: SF-295 CNS
[47] = test system: PC-3 prostate
[48] = test system: HS 578T breast
[49] = test system: NCI-H522 lung
[50] = test system: EKVX NSCLC
[51] = test system: IGROV1 ovarian
[52] = test system: SR leukemia
[53] = test system: MDA-MB-231 breast
[54] = test system: MDA-MB-435
[55] = test system: CCRF-CEM leukemia
[56] = test system: UO-31 renal
[57] = test system: A498 renal
[58] = test system: OVCAR-3 ovarian
[59] = test system: SF-539 CNS

O=C(c1ccccc1)n1c(Cc2ccccc2)nc2cc(C34CC5CC(CC(C5)C3)C4)ccc21
TGI [1]: > 100 µM | TGI [2]: > 100 µM | TGI [3]: 58.2 µM | TGI [4]: > 100 µM | TGI [5]: > 100 µM | TGI [6]: > 100 µM | TGI [7]: 48.5 µM | TGI [8]: > 100 µM | TGI [9]: > 100 µM | TGI [10]: > 100 µM | TGI [11]: > 100 µM | TGI [12]: > 100 µM | TGI [13]: > 100 µM | TGI [14]: > 100 µM | TGI [15]: > 100 µM | TGI [16]: > 100 µM | TGI [17]: > 100 µM | TGI [18]: > 100 µM | TGI [19]: > 100 µM | TGI [20]: > 100 µM | TGI [21]: > 100 µM | TGI [22]: > 100 µM | TGI [23]: 90 µM | TGI [24]: > 100 µM | TGI [25]: > 100 µM | TGI [26]: > 100 µM | TGI [27]: > 100 µM | TGI [28]: > 100 µM | TGI [29]: > 100 µM | TGI [30]: > 100 µM | TGI [31]: > 100 µM | TGI [32]: > 100 µM | TGI [33]: > 100 µM | TGI [34]: 56.5 µM | TGI [35]: > 100 µM | TGI [36]: > 100 µM | TGI [37]: > 100 µM | TGI [38]: > 100 µM | TGI [39]: > 100 µM | TGI [40]: > 100 µM | TGI [41]: > 100 µM | TGI [42]: > 100 µM | TGI [43]: > 100 µM | TGI [44]: > 100 µM | TGI [45]: > 100 µM | TGI [46]: > 100 µM | TGI [47]: > 100 µM | TGI [48]: > 100 µM | TGI [49]: > 100 µM | TGI [50]: > 100 µM | TGI [51]: > 100 µM | TGI [52]: > 100 µM | TGI [53]: > 100 µM | TGI [54]: > 100 µM | TGI [55]: > 100 µM | TGI [56]: > 100 µM | TGI [57]: > 100 µM

CC[C@@]1(O)C(=O)OCc2c1cc1n(c2=O)Cc2c-1nc1ccccc1c2/C=N\NC(=O)C(N)CO (stereo not given in full)
TGI [1]: 7.51 µM | TGI [3]: > 100 µM | TGI [4]: > 100 µM | TGI [5]: > 100 µM | TGI [6]: > 90.4 µM | TGI [7]: > 100 µM | TGI [8]: 6.15 µM | TGI [9]: > 65.8 µM | TGI [58]: > 100 µM | TGI [10]: 7.73 µM | TGI [11]: 13 µM | TGI [12]: > 100 µM | TGI [13]: > 100 µM | TGI [14]: > 100 µM | TGI [15]: > 100 µM | TGI [16]: > 44 µM | TGI [17]: 39.6 µM | TGI [18]: > 100 µM | TGI [19]: > 100 µM | TGI [20]: > 100 µM | TGI [21]: > 100 µM | TGI [22]: > 21 µM | TGI [23]: 21.3 µM | TGI [24]: > 27.2 µM | TGI [25]: 0.419 µM | TGI [26]: 9.35 µM | TGI [27]: 5.38 µM | TGI [28]: > 73.2 µM | TGI [29]: > 100 µM | TGI [30]: > 100 µM | TGI [31]: > 100 µM | TGI [32]: > 100 µM | TGI [33]: 50.5 µM | TGI [34]: 2.55 µM | TGI [35]: 25.3 µM | TGI [36]: 25.3 µM | TGI [37]: 7.36 µM | TGI [38]: > 100 µM | TGI [39]: 0.312 µM | TGI [40]: > 20.9 µM | TGI [41]: 1.58 µM | TGI [59]: 0.763 µM | TGI [42]: 23.2 µM | TGI [43]: 22.8 µM | TGI [44]: > 100 µM | TGI [45]: 9.2 µM | TGI [46]: > 100 µM | TGI [47]: > 100 µM | TGI [48]: > 100 µM | TGI [49]: > 42.2 µM | TGI [50]: > 100 µM | TGI [51]: > 100 µM | TGI [52]: 3.59 µM | TGI [53]: > 100 µM | TGI [54]: > 31.6 µM | TGI [55]: > 19.7 µM | TGI [56]: 11 µM | TGI [57]: 12.2 µM
